Test results as given in patent US10968265B2, “Antibody-coupled cyclic peptide tyrosine tyrosine compounds as modulators of neuropeptide Y receptors” (Janssen Pharmaceutica NV, priority 2016, dated 2021).

How the values were obtained:
[1] = OGTT after 8 days of treatment in DIO mice; assay type: in vivo, mouse; conditions: 0.3 nmol/kg every day
Procedure: (§1) Compound 1 was evaluated for its ability to reduce foot intake and body weight and improve glucose homeostasis on repeat dosing in male DIO C57Bl/6 mice over a period of 8 days. Male DIO C57BL/6N mice (20 weeks of age, 14 weeks on high fat diet) were obtained from Taconic Laboratory. […] Animals were acclimated to the facility for at least one week prior to the start of the experiment.
(§2) The day prior to dosing, mice were grouped based on individual body weights. At 3:00-4:00 pm for each of the next 8 days, animals and food intake were weighed. […] After 8 days, mice are fasted for 5 hours and then given a 2 g/kg bolus of glucose orally at t=0. At t=0, 30, 60, 90, and 120 minutes post glucose challenge blood glucose is measured and at t=0, 30, and 90 minutes blood in drawn to measure plasma insulin. […] All data are presented as the mean±SEM (FIG. 7, FIG. 8, and Tables 8-11).

[2] = Single dose, food intake and body weight in Sprague-Dawley rats; assay type: in vivo, rat; design: body weight change: unit not given here; conditions: single dose 0.3 nmol/kg s.c. (Dulaglutide); for absolute body weight: in g (unit assumed)
Procedure: Compound 1 was evaluated for its ability to reduce foot intake and body weight in Sprague-Dawley after a single dose. The animals were obtained from Charles River Labs (Wilmington, Mass.) at 200-225 g body weight and used within one week of delivery. They were housed one per cage on alpha dry bedding and a plastic tube for enrichment in a temperature-controlled room with 12-hour light/dark cycle. […] Animal weights were taken and recorded for each rat prior to dosing.
Body weights and food intake were measured 1, 2 and 3 days after dosing and the percentages of weight loss and reduction in food intake were calculated. […] All data are presented as the mean±SEM (Tables 18-20).

[3] = Weight loss in diet-induced obese mice: chronic dosing; assay type: in vivo, mouse; conditions: for body weight: 0.3 nmol/kg s.c. every day
Procedure: as §1, §2

Substance: Dulaglutide
- blood glucose (mg/dL) during OGTT ([1]; 0 min after glucose challenge): 76 ± 9 mg/dL
- insulin (ng/mL) during OGTT ([1]; 0 min after glucose challenge): 0.6 ± 0.1 ng/mL
- blood glucose (mg/dL) during OGTT ([1]; 30 min after glucose challenge): 151 ± 14 mg/dL
- insulin (ng/mL) during OGTT ([1]; 30 min after glucose challenge): 1.7 ± 0.2 ng/mL
- blood glucose (mg/dL) during OGTT ([1]; 60 min after glucose challenge): 174 ± 17 mg/dL
- blood glucose (mg/dL) during OGTT ([1]; 90 min after glucose challenge): 104 ± 10 mg/dL
- insulin (ng/mL) during OGTT ([1]; 90 min after glucose challenge): 0.7 ± 0.2 ng/mL
- blood glucose (mg/dL) during OGTT ([1]; 120 min after glucose challenge): 119 ± 9 mg/dL
- glucose Delta AUC (mg/dl/120 min) ([1]; OGTT): 6668 ± 1846 mg/dl/120 min
- glucose Total AUC (mg/dl/120 min) ([1]; OGTT): 15758 ± 1054 mg/dl/120 min
- body weight change ([2]; Day 0): 0.0 ± 0.0
- daily food intake ([2]; Day 0): 26.6 ± 0.8
- absolute body weight ([2]; Day 0): 270.3 ± 3.0
- body weight change ([2]; Day 1): 10.6 ± 1.6
- daily food intake ([2]; Day 1): 27.3 ± 1.2
- absolute body weight ([2]; Day 1): 280.8 ± 4.2
- body weight change ([2]; Day 2): 22.5 ± 0.8
- daily food intake ([2]; Day 2): 30.0 ± 0.7
- absolute body weight ([2]; Day 2): 292.47 ± 3.6
- body weight change ([2]; Day 3): 28.7 ± 0.6
- daily food intake ([2]; Day 3): 30.1 ± 0.7
- absolute body weight ([2]; Day 3): 299.0 ± 3.3
- body weight change ([2]; Day −1): −6.3 ± 0.8
- absolute body weight ([2]; Day −1): 264.0 ± 3.1
- Total Food Consumption ([2]; over three days): 87.4 ± 2.0
- fed Blood Glucose ([3]; 0.3 nmol/kg every day, after 8 days of treatment): 114 ± 13 mg/dL
- body weight ([3]; Day 0): 45.9 ± 0.6 g
- body weight ([3]; Day 1): 44.1 ± 0.6 g
- body weight ([3]; Day 2): 42.2 ± 0.6 g
- body weight ([3]; Day 3): 40.6 ± 0.6 g
- body weight ([3]; Day 4): 39.3 ± 0.6 g
- body weight ([3]; Day 5): 38.1 ± 0.7 g
- body weight ([3]; Day 6): 37.1 ± 0.8 g
- body weight ([3]; Day 7): 36.4 ± 1.0 g
- body weight ([3]; Day 8): 36.5 ± 1.1 g
- body weight ([3]; Day −1): 46.3 ± 0.6 g
